Reference: patent publication US5665769A, “Pharmaceutical composition for preventing and treating retinal diseases” (Senju Pharmaceuticals Co., Ltd., priority 1993, dated 1997)
Several values for one entry are separate records, joined by “and”; a condition that tells them apart may be missing. Equal values may be shown once.

Key:
[1] = tested on: bovine retinal homogenate; assay: Ferrous chloride-induced peroxidation of bovine retinal homogenate in vitro, TBA value (Experiment 1 (A)); type: biochemical; details: 10^-4 M
Description: (A) In vitro experiment using a bovine retinal homogenate:
Effects of 2-O-octadecylascorbic acid on the peroxidation induced by adding ferrous chloride to a bovine retinal homogenate were examined.
(1) Retinae were removed from bovine eyeballs (1/2 eye). Physiological saline was added to the retinae to prepare bovine retinal homogenates.
(2) Ferrous chloride (0.5 mM, dissolved in distilled water) was added to each of the retinal homogenates obtained in the above. Further, 2-O-octadecylascorbic acid and α-tocopherol were added to the resulting homogenates to final concentrations of the reaction mixtures of 10^-4 M, respectively. Further, distilled water was added to each of the homogenates to adjust a total volume to 1 ml. 2-O-octadecylascorbic acid and α-tocopherol were dissolved and diluted with ethanol. Thus, the final concentrations of ethanol in all of the reaction mixtures were adjusted to 1%. Then, the mixtures were subjected to reaction at 37° C. for 1 hour.
(3) 0.35% thiobarbituric acid (hereinafter referred to as TBA) reagent (50% aqueous acetic acid solution)(1 ml) was added to the reaction mixtures or standard solutions of the retinal homogenates obtained in the above (2). The mixtures were subjected to reaction in boiling water at 100° C. for 1 hour. After water cooling, n-butanol (2 ml) was added, and the mixtures were shaken for 5 minutes and centrifuged at 3000 rpm for 10 minutes. Fluorescence intensities (excitation wave length: 515 nm, emission wave length: 553 nm) were determined for the n-butanol layer. Proteins were determined using Bio-Rad Protein Assay Kit (trade name).

[2] = tested on: retina (rat); assay: Retinal light damage in rats, histopathology and retinal thickness (Experiment 2 (B-1)); type: in vivo; parameters: key to Vacuolation of retinal pigment epithelium / Disarrangement or vacuolation of inner and outer segments of visual cells / Infiltration of macrophage / Pyknosis and nuclear disappearance in outer nuclear layer / Thinning of retinal entire layer: -: not observable; ±: slightly observable; +: observable; ++: remarkably observable; details: for Vacuolation of retinal pigment epithelium / Disarrangement or vacuolation of inner and outer segments of visual cells / Infiltration of macrophage / Pyknosis and nuclear disappearance in outer nuclear layer / Thinning of retinal entire layer: one line per animal
Description: (§1) (B) In vivo experiment by light exposure in rats
(§2) (B-1) Evaluation by retinal pathological tissues and rhodopsin amount
(§3) Rats were subjected to dark adaptation for 72 hours. Then the rats were irradiated continuously for 12 hours using a green fluorescent lamp (10 W, 490-580 nm), the illumination intensity of which was adjusted to 2000 to 2400 lux. A suspension of 1.5% or 5.0% 2-O-octadecylascorbic acid was orally administered three times a day (90, 300 mg/kg/day) on the day of light exposure, and once a day (30, 100 mg/kg/day) after that. To the control group was administered 5.0% gum arabic solution (control) according to the same schedule. After completion of the light exposure, the rats were reared in a dark room and sacrificed on the 5th day. The right eyes were marked with ink in the upper part and fixed with 2% paraformaldehyde and 2% glutaraldehyde solutions. Histopathological evaluation was made using a light microscope and the thickness of retinae (thickness of retinal entire layer and outer nuclear layer) was measured. The left eyes were stored under freezing conditions at -20° C. for rhodopsin determination after removal of the cornea, lens and vitreous body.

[3] = tested on: retina (ERG in rats); assay: ERG changes induced by intravitreous injection of ferrous sulfate in rats (Experiment 1 (B-2)); type: in vivo, SD rats; details: 30 mg/kg oral
Description: FIG. 1 is a graph showing the a-wave amplitude of ERG in rats after intravitreous injection of ferrous ion in Experiment 1 (B-2). The abscissa indicates time (hour) and the ordinate indicates percentage (%) relative to the initial amplitude. In FIGS. 1 to 5, the compound (I) is 2-O-octadecylascorbic acid. FIG. 2 is a graph showing the b-wave latency of ERG in rats after intravitreous injection of ferrous ion in Experiment 1 (B-2). The abscissa indicates time (hour) and the ordinate indicates percentage (%) relative to the initial amplitude. FIG. 3 is a graph showing the b-wave amplitude of ERG in rats after intravitreous injection of ferrous ion in Experiment 1 (B-2). The abscissa indicates time (hour) and the ordinate indicates percentage (%) relative to the initial amplitude. (B-2) Evaluation by Electroretinogram (hereinafter referred to as ERG) determination Effects of oral administration of 2-O-octadecylascorbic acid (30 mg/kg) on the changes of ERG induced by intravitreous injection of ferrous sulfate in rats were examined. Twelve SD rats (7 weeks old) were fasted from the previous day. A 7.5 mM ferrous sulfate (5 μl) solution was injected intravitreously into each of the left eyes. A 1.5% suspension of 2-O-octadecylascorbic acid (30 mg/kg) or a 5% solution of gum arabic (control) was firstly administered orally 2 hours before the ferrous ion injection, and thereafter administered three times every 3 hours and then three times every 5 hours. ERG was determined 6, 9 and 24 hours after the ferrous ion injection and evaluated for the latency and amplitude of a-wave and b-wave.

[4] = tested on: retinal rhodopsin; assay: Retinal light damage in rats, retinal rhodopsin amount (Experiment 2 (B-1)); type: in vivo; details: for Amount of retinal rhodopsin: mean ± S.D.
Description: as §1, §2, §3
Rhodopsin was determined as follows. Firstly, the optic cup was sliced under a red lamp in a dark room, and retinal homogenates were prepared using 0.1M phosphate buffer (pH 7.2). After centrifugation at 15,000 rpm for 15 minutes, the precipitation was treated with 4% potassium alum solution. After washing, rhodopsin was extracted with 1% Emulphogen BC-720 (trade mark). The absorbance at 500 nm was measured using the centrifuged supernatant as the sample. The sample was bleached by light exposure with a yellow lamp for 5 minutes. The absorbance at 500 nm was measured again. The rhodopsin amount was calculated from the difference between the absorbances before and after the bleach (molar absorption coefficient: 42,000).

[5] = 1.5% suspension, mean ± S.D., n=5
[6] = 1.5% suspension, Nos. 1-5 in order
[7] = 5.0% suspension, mean ± S.D., n=3
[8] = 5.0% suspension, Nos. 1-3 in order
[9] = 9 hours after ferrous ion injection, compared to control

CCCCCCCCCCCCCCCCCCOC1=C(O)[C@@H]([C@@H](O)CO)OC1=O [2-O-octadecylascorbic acid]
inhibitory effect on the peroxidation of the retinal homogenate ([1]; compared with α-tocopherol): more excellent inhibitory effect on the peroxidation of the retinal homogenate than that in the presence of α-tocopherol
Retina: TBA value ([1]; 0.5 mM ferrous chloride, 37° C., 1 hour, mean ± S.D., n=3, p < 0.001 vs control): 0.61 ± 0.04 nM malondialdehyde/mg protein
Inhibitory ratio ([1]; ferrous chloride control = 0, blank = 100, 60 min): 94.9%
examples (animals) with remarkably observed retinal lesions ([2]; 1.5% suspension): four of five examples
Vacuolation of retinal pigment epithelium ([2]; 1.5% suspension (90 mg/kg/day oral on day of exposure, then 30), Nos. 1-5 in order): +
Thickness of outer nuclear layer, lesion [2, 5]: 16.0 ± 7.2 µM
Thickness of outer nuclear layer, near optic disk [2, 5]: 39.0 ± 8.8 µM
Thickness of retinal entire layer, lesion [2, 5]: 88.5 ± 22.3 µM
Thickness of retinal entire layer, near optic disk [2, 5]: 135.5 ± 27.9 µM
Disarrangement or vacuolation of inner and outer segments of visual cells [2, 6]: ++ (4×) and +
Infiltration of macrophage [2, 6]: ++ (4×) and -
Pyknosis and nuclear disappearance in outer nuclear layer [2, 6]: ++ (4×) and ±
Thinning of retinal entire layer [2, 6]: ++ (4×) and -
examples (animals) with remarkably observed retinal lesions ([2]; 5.0% suspension): one of three examples
Vacuolation of retinal pigment epithelium ([2]; 5.0% suspension (300 mg/kg/day oral on day of exposure, then 100), Nos. 1-3 in order): - and + (2×)
thickness of the retinal entire layer near optic disk (in words) ([2]; 5.0% suspension, compared with control): significantly larger than that in the control group
severity of lesions ([2]; 5.0% suspension, compared with control group): not so severe as those of the control group
Thickness of outer nuclear layer, lesion [2, 7]: 19.2 ± 11.3 µM
Thickness of outer nuclear layer, near optic disk [2, 7]: 48.3 ± 1.4 µM
Thickness of retinal entire layer, lesion [2, 7]: 84.2 ± 16.3 µM
Disarrangement or vacuolation of inner and outer segments of visual cells [2, 8]: ± and + and ++
Infiltration of macrophage [2, 8]: - (2×) and ++
Pyknosis and nuclear disappearance in outer nuclear layer [2, 8]: ± and + and ++
Thinning of retinal entire layer [2, 8]: - and + and ++
thickness of the outer nuclear layer near optic disk (in words) ([2]; suspension administered groups, compared with control): tends to be larger than that in the control group
decrease of the amplitude of a-wave and b-wave [3, 9]: more marked tendency to inhibit the decrease of the amplitude of a-wave and b-wave
delay of the b-wave latency [3, 9]: the delay of the b-wave latency was significantly inhibited
recovery of amplitude ([3]; 24 hours after ferrous ion injection, both groups): The amplitude was not recovered even in the determination after 24 hours
delay of the latency and decrease of the amplitude of a-wave and b-wave ([3]; from 6 hours after ferrous ion injection, both groups): strongly observed in both groups
Amount of retinal rhodopsin ([4]; 1.5% suspension, n=5): 0.51 ± 0.20 nM/eye
Amount of retinal rhodopsin ([4]; 5.0% suspension, n=3): 0.69 ± 0.14 nM/eye
decrease of the amount of rhodopsin by light exposure (in words) ([4]; suspension administered groups): the tendency to inhibit the decrease of the amount of rhodopsin by light exposure was observed
